Laboratory results published in patent US20230405062A1, “GOS PRE-CONDITIONING L. REUTERI AND GOS IN FINAL FORMULATION” (BIOGAIA AB, priority 2021, published 2023).

How the values were obtained:
S. thermophilus NCC2496 = assay: Survival of S. thermophilus in colon (qPCR), short SHIME model; set-up: species or system Streptococcus thermophilus; conditions: 48 h incubation, FIG. 4A
Source text: (§1) In this experiment, a simplified simulation of the continuous Simulator of the Human Microbial Ecosystem (SHIME®) was used. This SHIME® model has been extensively used for more than 20 years for both scientific and industrial projects and has been validated with in vivo parameters (see for example Van den Abbeele et al., Arabinoxylo-Oligosaccharides and Inulin Impact Inter-Individual Variation on Microbial Metabolism and Composition, Which Immunomodulates Human cells, J. Agric. Food chem. 2018, 66(5): 1121-1130).
For the current set of experiments a two-stage batch system mimicking the upper gastro-intestinal tract (Upper GIT, stomach and small intestine) and colonic conditions were used as simplified SHIME® system (FIG. 1). Cow milk-based toddler beverage, also called Growing-up-milk, containing minerals adapted for the age group was used in these studies. […]
(§2) L. reuteri strain and pre-conditioned L. reuteri strain were inoculated at 1x10^9 CFU/reactor. L. reuteri were quantified by plating on MRS medium, while S. thermophilus was plated on M17 medium supplemented with lactose. […] Quantities of L. reuteri and S. thermophilus powders were then calculated to target 1x10^9 CFU/colonic reactor. […]
(§3) Quantitative polymerase chain reaction (qPCR) was performed to selectively enumerate Lactobacilli and Streptococci. qPCR was performed at 0 h and after 48 h of colonic incubation.

L. reuteri DSM 17938 = assay: Survival of L. reuteri in colon (qPCR), short SHIME model; set-up: species or system Lactobacillus reuteri; conditions: for survival of L. reuteri in the colon in presence or absence of GOS: 48 h incubation, qPCR, FIG. 4A
Source text: as §1
For the current set of experiments a two-stage batch system mimicking the upper gastro-intestinal tract (Upper GIT, stomach and small intestine) and colonic conditions were used as simplified SHIME® system (FIG. 1). Cow milk-based toddler beverage, also called Growing-up-milk, containing minerals adapted for the age group was used in these studies.
Fresh fecal material was collected from an infant donor. Fecal suspension was prepared and mixed with a protectant. At the start of the short-term colonic incubation, the test ingredients (L. reuteri strain and Streptococcus thermophilus strain) were added to sugar-depleted nutritional medium containing basal nutrients present in the colon (e.g., host-derived glycans such as mucin).
L. reuteri strain and S. thermophilus strain were inoculated at 1×10^9 CFU/reactor. […]
as §2, §3

| Substance | survival of S. thermophilus in the colon in presence or absence of GOS (S. thermophilus NCC2496) | survival of S. thermophilus in the colon in presence or absence of GOS (S. thermophilus NCC2496; listed as Streptococcus thermophilus NCC2496) | survival of L. reuteri in the colon in presence or absence of GOS (L. reuteri DSM 17938) | survival of L. reuteri in the colon in presence or absence of GOS (L. reuteri DSM 17938; listed as L. reuteri DSM17938) | survival of L. reuteri in the colon in presence of GOS, pre-conditioned vs non-pre-conditioned (L. reuteri DSM 17938; cell counts at 48 h, FIG. 4B) |
| --- | --- | --- | --- | --- | --- |
| Streptococcus thermophilus NCC2496 [S. thermophilus] | impaired by the presence of GOS | negative effect of GOS | – | – | – |
| Lactobacillus reuteri DSM 17938 [L. reuteri] | – | – | enhanced by the presence of GOS | positive effect of GOS | survives well |
